Laboratory results published in the OligoGym collection.
Several values for one entry are separate records, joined by “and”; a condition that tells them apart may be missing. Equal values may be shown once. After the bases stand the sugars from the 5' end (letter, count) and the backbone: PS all phosphorothioate, else s phosphorothioate and o phosphodiester by linkage. Methylation of C is not given here. e = 2'-O-(2-methoxyethyl) (MOE); k = constrained ethyl (cEt); d = 2'-deoxy (DNA)

Molecular target: KRAS
Details: ASO

Sequence	target mRNA inhibition (A431, 2 µM)	also measured
TGTAAATATAGCCCCA (sugars k3 d10 k3, PS)	34%	–
GTGTTTATGCAATGTT (sugars kkkddddddddkekek, PS)	66%	target mRNA inhibition (A431, 0.185 µM): 33%; target mRNA inhibition (A431, 0.556 µM): 55%; target mRNA inhibition (A431, 1.667 µM): 69%; target mRNA inhibition (A431, 5 µM): 78%
CTCTCTATGAAAGCTC (sugars k3 d10 k3, PS)	29%	–
AATCCATTTATGTGAC (sugars k3 d10 k3, PS)	26%	–
ACCAGTGTTAAGAGAA (sugars kkkddddddddkdkdk, PS)	50%	–
TGATTTGTCAGCAGGA (sugars kkdddddddddkekek, PS)	45%	–
AGTGATTAGGTCAAAT (sugars kddddddddddkekek, PS)	21%	–
GATTGTGCTGAGCTTG (sugars k3 d9 k3 e1, PS)	30%	–
GTAATTAATCCATTTA (sugars k3 d10 k3, PS)	15%	–
CCATTTATGTGACTAG (sugars kkddddddddddkeke, PS)	46%	–
CATTTATGTGACTAGA (sugars kddddddddddkekek, PS)	24%	–
AAACAAATGCTAATAA (sugars k3 d10 k3, PS)	9%	–
GGTTAGGGGAATTACA (sugars k3 d10 k3, PS)	26%	–
ATTGTGCTGAGCTTGA (sugars k3 d10 k3, PS)	51%	–
TATAATGGTGAATATC (sugars k3 d10 k3, PS)	7%	–
ACTTATGCAGAGAAAA (sugars k3 d10 k3, PS)	37%	–
ACCATTCAAAGTTCAC (sugars kkddddddddddkeke, PS)	41%	–
TTGTTTAAAAAAAAAA (sugars k3 d10 k3, PS)	0%	–
TAGTGATTAGGTCAAA (sugars kkddddddddkekekk, PS)	42%	–
GTCCAGTGATACTTTC (sugars kkkddddddddkekek, PS)	21%	–
TCATTACTTTTTGACA (sugars k3 d10 k3, PS)	4%	–
GAGTCTTTATAGTAAT (sugars kdddddddddkekeke, PS)	21%	–
TTGATTTGTCAGCAGG (sugars k3 d9 k3 e1, PS)	55% and 30%	–

Sequence	target mRNA inhibition (A431, 2 µM)	also measured
GTATCTTGTTGAGCTA (sugars k3 d10 k3, PS)	56%	–
CAGTGTGACTCAGTTA (sugars k3 d10 k3, PS)	53%	–
ATCCAGTATTAACACA (sugars k3 d10 k3, PS)	0%	–
ATAATAGTTTCCATTG (sugars k3 d10 k3, PS)	8%	–
GAGAATGGATATTCAA (sugars k3 d10 k3, PS)	8%	–
ATAATGGTGAATATCT (sugars k3 d10 k3, PS)	41%	–
ACCATTCAAAGTTCAC (sugars kdddddddddkekeke, PS)	15%	–
TCCATTTATGTGACTA (sugars kdddddddddkekeke, PS)	15%	–
AAAAAAAAAATTAATG (sugars k3 d10 k3, PS)	6%	–
TCCATTTATGTGACTA (sugars kkddddddddkekekk, PS)	29%	–
TACTTTTTGACAAATG (sugars k3 d10 k3, PS)	37%	–
TGGTGTAACATAGGTT (sugars kkddddddddkekekk, PS)	55%	target mRNA inhibition (A431, 0.185 µM): 11%; target mRNA inhibition (A431, 0.556 µM): 33%; target mRNA inhibition (A431, 1.667 µM): 58%; target mRNA inhibition (A431, 5 µM): 68%
CTTGATTTGTCAGCAG (sugars kkddddddddddkeke, PS)	54%	–
GTCCAGTGATACTTTC (sugars kkdddddddddkekek, PS)	43%	–
TTAGGAGTCTTTATAG (sugars k3 d10 k3, PS)	30%	–
TCAACTGCATGCACCA (sugars k3 d10 k3, PS)	52%	–
TAGGGCATTTCTGATG (sugars k3 d10 k3, PS)	20%	–
TGACTAATAGCAGTGG (sugars k3 d10 k3, PS)	58%	target mRNA inhibition (A431, 0.037 µM): 64%; target mRNA inhibition (A431, 5 µM): 96% and 93%; target mRNA inhibition (NCI-H460, 0.037 µM): 53.3%
GTGAATATCTTCAAAT (sugars k3 d10 k3, PS)	0%	–
AGTGATTAGGTCAAAT (sugars kdddddddddkekeke, PS)	12%	–
CATTCAAAGTTCACAT (sugars kkddddddddkekekk, PS)	96%	target mRNA inhibition (A431, 0.185 µM): 5%; target mRNA inhibition (A431, 0.556 µM): 7%; target mRNA inhibition (A431, 1.667 µM): 9%; target mRNA inhibition (A431, 5 µM): 16%
TTTCTGATGTGACTCA (sugars k3 d10 k3, PS)	57%	target mRNA inhibition (A431, 0.185 µM): 0%; target mRNA inhibition (A431, 0.556 µM): 23%; target mRNA inhibition (A431, 1.667 µM): 43%; target mRNA inhibition (A431, 5 µM): 60%
CTTGATTTGTCAGCAG (sugars kkkdddddddddkeke, PS)	46%	–

Sequence	target mRNA inhibition (A431, 2 µM)	also measured
GCATTGCTAGTTCAAA (sugars k3 d10 k3, PS)	46%	–
ACTTCATTGTTTAAAA (sugars k3 d10 k3, PS)	0%	–
TTGCTATAATAATCCC (sugars k3 d10 k3, PS)	39%	–
TGTTTATGCAATGTTA (sugars kkdddddddddkekek, PS)	56%	target mRNA inhibition (A431, 0.185 µM): 50%; target mRNA inhibition (A431, 0.556 µM): 46%; target mRNA inhibition (A431, 1.667 µM): 69%; target mRNA inhibition (A431, 5 µM): 82%
TCCATTTATGTGACTA (sugars kkddddddddddkeke, PS)	22%	–
TTGATTTGTCAGCAGG (sugars kkkddddddddkdkdk, PS)	19%	–
AAGCTATTAGGAGTCT (sugars k3 d10 k3, PS)	65%	–
TTGATTTGTCAGCAGG (sugars kdddddddddkekeke, PS)	22%	–
TTACTTTTTGACAAAT (sugars k3 d10 k3, PS)	0%	–
ATGGTTAGGGGAATTA (sugars k3 d10 k3, PS)	33%	–
TAATCTTTTAATGTCA (sugars k3 d10 k3, PS)	7%	–
TAAAAAAAAAATTAAT (sugars k3 d10 k3, PS)	1%	–
TGATTTGTCAGCAGGA (sugars k3 d9 k3 e1, PS)	63%	target mRNA inhibition (A431, 0.185 µM): 26%; target mRNA inhibition (A431, 0.556 µM): 52%; target mRNA inhibition (A431, 1.667 µM): 70%; target mRNA inhibition (A431, 5 µM): 80%
CAGTGTTAAGAGAACT (sugars kkddddddddkekekk, PS)	35%	–
CAAAGTTCACATAAAG (sugars k3 d10 k3, PS)	21%	–
AGATTGTGCTGAGCTT (sugars kdddddddddkekeke, PS)	0%	–
CTTGATTTGTCAGCAG (sugars k3 d10 k3, PS)	51% and 44%	–
TCCAGTGATACTTTCA (sugars k3 d10 k3, PS)	51%	–
CATTCAAAGTTCACAT (sugars kdddddddddkekeke, PS)	24%	–
TGATTTGTCAGCAGGA (sugars kddddddddddkekek, PS)	47%	–
GTAGGGCATTTCTGAT (sugars k3 d10 k3, PS)	14%	–
CCATTCAAAGTTCACA (sugars kkdddddddddkdkdk, PS)	31%	–
CCATTCAAAGTTCACA (sugars kkkddddddddkekek, PS)	39%	–

Sequence	target mRNA inhibition (A431, 2 µM)	also measured
GCTGTGAAACTCTCTA (sugars k3 d10 k3, PS)	42%	–
AAAGTTCACATAAAGG (sugars k3 d10 k3, PS)	38%	–
TCACTTCATTGTTTAA (sugars k3 d10 k3, PS)	32%	–
AGTGTGACTCAGTTAA (sugars kkddddddddkekekk, PS)	47%	–
CTTTTAATGTCACAAG (sugars k3 d10 k3, PS)	9%	–
TTAATGTCACAAGCAG (sugars k3 d10 k3, PS)	52%	–
ACCATTCAAAGTTCAC (sugars kkddddddddkekekk, PS)	7%	–
AGACTTGAAAAGTGTT (sugars k3 d10 k3, PS)	28%	–
CCATTTATGTGACTAG (sugars k3 d10 k3, PS)	94% and 75%	target mRNA inhibition (A431, 0.125 µM): 70% and 67%; target mRNA inhibition (A431, 0.185 µM): 30% and 14%; target mRNA inhibition (A431, 0.556 µM): 56% and 35%; target mRNA inhibition (A431, 5 µM): 83% and 72%; target mRNA inhibition (NCI-H460, 0.037 µM): 52.4%
GTGTTTATGCAATGTT (sugars kkddddddddddkeke, PS)	73%	target mRNA inhibition (A431, 0.185 µM): 44%; target mRNA inhibition (A431, 0.556 µM): 71%; target mRNA inhibition (A431, 1.667 µM): 83%; target mRNA inhibition (A431, 5 µM): 92%
GCTATAATAATCCCCA (sugars k3 d10 k3, PS)	56%	target mRNA inhibition (A431, 0.185 µM): 1%; target mRNA inhibition (A431, 0.556 µM): 24%; target mRNA inhibition (A431, 1.667 µM): 55%; target mRNA inhibition (A431, 5 µM): 68%
TGTTGAGCTATCCAAA (sugars k3 d10 k3, PS)	37%	–
TAACCAGTGTTAAGAG (sugars k3 d10 k3, PS)	40%	–
TCCAGTGATACTTTCA (sugars k3 d9 k3 e1, PS)	47%	–
AAACGAGAATGGATAT (sugars k3 d10 k3, PS)	12%	–
CCATTTATGTGACTAG (sugars k3 d9 k3 e1, PS)	49%	target mRNA inhibition (A431, 0.185 µM): 28%; target mRNA inhibition (A431, 0.556 µM): 47%; target mRNA inhibition (A431, 1.667 µM): 53%; target mRNA inhibition (A431, 5 µM): 66%
GCTGTGAAACTCTCTA (sugars kddddddddddkekek, PS)	41%	–
TGGTGTAACATAGGTT (sugars k3 d10 k3, PS)	58%	target mRNA inhibition (A431, 0.185 µM): 0%; target mRNA inhibition (A431, 0.556 µM): 35%; target mRNA inhibition (A431, 1.667 µM): 61%; target mRNA inhibition (A431, 5 µM): 78%
CTTGATTTGTCAGCAG (sugars kdddddddddkekeke, PS)	44%	target mRNA inhibition (A431, 0.037 µM): 51%
TTGATTTGTCAGCAGG (sugars kkkddddddddkekek, PS)	37% and 12%	–
TAATGGTGAATATCTT (sugars k3 d10 k3, PS)	11%	–
